The target of assay [1] is T1, F508delCFTR (Homo sapiens, UniProt P13569, DEL508-508).
T1 construct: expressed in transfected cells; host or cells: CFBE41o- human lung-derived epithelial cells (CFBE41o-F508delCFTR-HRP), doxycycline-inducible
Nature of the assay: Cell Surface Expression-Horse Radish Peroxidase (CSE-HRP) assay, test compound without co-corrector.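 On Maximum % activity (without co-corrector): percent of on-plate 2 µM positive control corrector response over DMSO.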 The format is cell-based. In outline:
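CFBE41o- cells expressing F508delCFTR with HRP in the fourth exofacial loop, induced with 0.5 μg/mL doxycycline for 72 h at 37° C, then exposed to compound alone for 18-24 h at 33° C, 8-point 3-fold series from 20 μM. Surface HRP read by luminol luminescence, normalized to positive corrector control versus DMSO; EC50 from variable-slope sigmoidal fit of three replicate plates.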

The target in assay [2] is T1, F508delCFTR. Nature of the assay: Cell Surface Expression-Horse Radish Peroxidase (CSE-HRP) assay, test compound with co-corrector.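 On Maximum % activity (with co-corrector): percent of 2 µM positive control corrector over DMSO; co-corrector is that same compound.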 It is filed as cell-based. The note with it: with 2 μM co-corrector. In a few lines:
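CFBE41o- cells expressing F508delCFTR with HRP in the fourth exofacial loop, induced with 0.5 μg/mL doxycycline for 72 h, then treated 18-24 h at 33° C. with compound (8 points, top 20 μM, 3-fold) plus 2 μM co-corrector. Surface HRP read by luminol luminescence; activity normalised to positive control, EC50 from variable-slope sigmoidal fit.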

T1 sequence (P13569 with tags, fused parts or gaps DEL508-508): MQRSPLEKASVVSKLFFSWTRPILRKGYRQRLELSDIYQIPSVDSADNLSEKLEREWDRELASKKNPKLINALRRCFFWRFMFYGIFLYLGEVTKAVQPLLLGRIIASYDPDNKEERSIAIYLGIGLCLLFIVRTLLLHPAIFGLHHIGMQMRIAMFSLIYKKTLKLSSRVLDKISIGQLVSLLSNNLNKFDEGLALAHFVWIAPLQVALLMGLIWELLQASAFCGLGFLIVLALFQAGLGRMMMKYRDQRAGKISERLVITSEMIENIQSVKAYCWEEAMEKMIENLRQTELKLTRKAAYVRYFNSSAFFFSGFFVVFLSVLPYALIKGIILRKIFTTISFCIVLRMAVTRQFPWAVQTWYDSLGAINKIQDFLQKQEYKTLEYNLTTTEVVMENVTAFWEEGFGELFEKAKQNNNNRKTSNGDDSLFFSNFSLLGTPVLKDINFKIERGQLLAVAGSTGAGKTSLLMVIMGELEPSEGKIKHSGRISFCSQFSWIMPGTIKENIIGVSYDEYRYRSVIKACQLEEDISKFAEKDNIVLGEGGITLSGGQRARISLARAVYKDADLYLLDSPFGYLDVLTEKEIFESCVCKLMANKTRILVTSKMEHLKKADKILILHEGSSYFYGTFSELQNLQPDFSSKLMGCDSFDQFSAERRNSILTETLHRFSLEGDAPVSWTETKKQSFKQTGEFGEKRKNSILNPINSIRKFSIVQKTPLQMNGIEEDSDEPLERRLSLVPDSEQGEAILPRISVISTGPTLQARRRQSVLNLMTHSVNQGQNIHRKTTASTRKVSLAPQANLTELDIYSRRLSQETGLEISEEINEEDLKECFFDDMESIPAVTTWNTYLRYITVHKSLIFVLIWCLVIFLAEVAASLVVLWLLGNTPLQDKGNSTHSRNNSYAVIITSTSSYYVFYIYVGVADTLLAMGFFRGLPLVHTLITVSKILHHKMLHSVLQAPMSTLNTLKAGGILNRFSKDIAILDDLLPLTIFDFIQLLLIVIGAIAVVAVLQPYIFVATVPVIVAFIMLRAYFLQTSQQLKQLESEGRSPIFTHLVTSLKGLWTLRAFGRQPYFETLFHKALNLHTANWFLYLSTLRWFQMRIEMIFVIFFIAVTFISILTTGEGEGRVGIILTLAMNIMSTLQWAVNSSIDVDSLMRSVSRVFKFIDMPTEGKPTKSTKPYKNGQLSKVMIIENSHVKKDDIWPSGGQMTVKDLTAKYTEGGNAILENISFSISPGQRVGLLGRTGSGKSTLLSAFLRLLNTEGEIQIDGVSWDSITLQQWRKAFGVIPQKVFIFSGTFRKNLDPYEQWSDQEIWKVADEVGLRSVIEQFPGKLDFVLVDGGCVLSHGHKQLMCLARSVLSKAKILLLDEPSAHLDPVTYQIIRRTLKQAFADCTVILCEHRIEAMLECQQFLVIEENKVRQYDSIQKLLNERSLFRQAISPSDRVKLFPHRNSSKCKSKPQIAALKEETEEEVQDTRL

The EC50 is the concentration at which the effect is half-maximal. A lower EC50 goes with greater potency. As for “(1S)-7-chloro-1-methyl-N-(naphthalene-1-sulfonyl)-2,3-dihydro-1H-indene-1-carboxamide [Example I-26]”, at F508delCFTR [1] (maximum at any tested concentration, normalized to positive control, without co-corrector), the “Maximum % activity (without co-corrector)” value is “++ (≥50 and <150)”. The EC50 on F508delCFTR [1] (test compound without co-corrector) and on F508delCFTR [2] was under 3000 nM in each case. At F508delCFTR [2] (maximum at any tested concentration, normalized to positive control), the “Maximum % activity (with co-corrector)” value is “+++ (≥350)”.

The values above are taken from US20180244611A1, “Modulators of the Cystic Fibrosis Transmembrane Conductance Regulator Protein and Methods of Use” (AbbVie S.à.r.l., priority 2017, published 2018).
